Test in all cases: biochemical
What all share (assay type): binding

For one assay, the target named is T1, NCK1 (Homo sapiens, UniProt P16333).
T1 construct: the DNA-tagged SH2 domain concentrations used in this study were <0.1 nM; made in house; host or cells: HEK293 (transient transfection, unpurified extract)

Another assay addresses T2, TEC (Homo sapiens, UniProt P42680).
T2 construct: made in house; host or cells: HEK293 (transient transfection), unpurified extract
T2 sequence (P42680 1-631): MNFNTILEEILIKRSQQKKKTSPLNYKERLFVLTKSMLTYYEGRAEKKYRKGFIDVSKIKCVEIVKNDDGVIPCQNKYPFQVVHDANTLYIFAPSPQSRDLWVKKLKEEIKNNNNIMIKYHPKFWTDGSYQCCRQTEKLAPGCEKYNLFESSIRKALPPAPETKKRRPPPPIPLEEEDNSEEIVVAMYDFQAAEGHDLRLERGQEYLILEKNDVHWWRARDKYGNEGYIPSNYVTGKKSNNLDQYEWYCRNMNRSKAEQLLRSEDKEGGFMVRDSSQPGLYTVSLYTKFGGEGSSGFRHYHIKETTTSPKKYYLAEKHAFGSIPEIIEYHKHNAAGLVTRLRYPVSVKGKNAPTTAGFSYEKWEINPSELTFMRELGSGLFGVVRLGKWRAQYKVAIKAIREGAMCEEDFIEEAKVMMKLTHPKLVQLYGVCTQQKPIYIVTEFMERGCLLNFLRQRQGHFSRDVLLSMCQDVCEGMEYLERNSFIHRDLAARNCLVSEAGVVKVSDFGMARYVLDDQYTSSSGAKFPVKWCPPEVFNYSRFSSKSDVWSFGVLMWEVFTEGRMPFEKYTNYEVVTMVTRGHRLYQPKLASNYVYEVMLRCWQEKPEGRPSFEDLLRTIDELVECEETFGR

A further assay addresses T3, SOCS1 (Homo sapiens, UniProt O15524).
T3 construct: made in house; host or cells: HEK293 (transient transfection), unpurified extract
T3 sequence (O15524 1-211): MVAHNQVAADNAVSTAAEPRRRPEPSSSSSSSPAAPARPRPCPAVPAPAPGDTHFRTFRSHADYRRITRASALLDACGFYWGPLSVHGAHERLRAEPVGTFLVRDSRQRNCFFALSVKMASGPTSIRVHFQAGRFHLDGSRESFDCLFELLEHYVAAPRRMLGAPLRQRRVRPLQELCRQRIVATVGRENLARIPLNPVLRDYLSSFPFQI

The target of a further assay is T4, SHC1 (Homo sapiens, UniProt P29353).
T4 construct: made in house; host or cells: HEK293 (transient transfection), unpurified extract
T4 sequence (P29353 1-583): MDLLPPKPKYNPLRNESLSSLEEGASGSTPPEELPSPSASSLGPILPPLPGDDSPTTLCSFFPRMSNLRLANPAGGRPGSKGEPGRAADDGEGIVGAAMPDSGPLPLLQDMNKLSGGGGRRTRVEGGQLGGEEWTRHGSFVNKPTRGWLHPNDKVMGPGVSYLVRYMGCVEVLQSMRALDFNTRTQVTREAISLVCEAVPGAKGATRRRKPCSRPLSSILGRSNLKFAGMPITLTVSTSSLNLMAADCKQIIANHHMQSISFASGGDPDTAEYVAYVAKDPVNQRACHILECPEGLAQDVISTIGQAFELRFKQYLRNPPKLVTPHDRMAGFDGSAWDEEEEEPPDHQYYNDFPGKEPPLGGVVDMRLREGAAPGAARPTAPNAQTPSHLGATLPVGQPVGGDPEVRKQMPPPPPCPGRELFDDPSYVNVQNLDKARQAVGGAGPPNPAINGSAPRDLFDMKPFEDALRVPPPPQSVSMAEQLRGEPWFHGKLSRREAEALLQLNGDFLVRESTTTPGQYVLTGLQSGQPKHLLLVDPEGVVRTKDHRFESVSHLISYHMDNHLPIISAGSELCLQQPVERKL

Another assay addresses T5, SHC2 (Homo sapiens, UniProt P98077).
T5 construct: made in house; host or cells: HEK293 (transient transfection), unpurified extract
T5 sequence (P98077 1-582): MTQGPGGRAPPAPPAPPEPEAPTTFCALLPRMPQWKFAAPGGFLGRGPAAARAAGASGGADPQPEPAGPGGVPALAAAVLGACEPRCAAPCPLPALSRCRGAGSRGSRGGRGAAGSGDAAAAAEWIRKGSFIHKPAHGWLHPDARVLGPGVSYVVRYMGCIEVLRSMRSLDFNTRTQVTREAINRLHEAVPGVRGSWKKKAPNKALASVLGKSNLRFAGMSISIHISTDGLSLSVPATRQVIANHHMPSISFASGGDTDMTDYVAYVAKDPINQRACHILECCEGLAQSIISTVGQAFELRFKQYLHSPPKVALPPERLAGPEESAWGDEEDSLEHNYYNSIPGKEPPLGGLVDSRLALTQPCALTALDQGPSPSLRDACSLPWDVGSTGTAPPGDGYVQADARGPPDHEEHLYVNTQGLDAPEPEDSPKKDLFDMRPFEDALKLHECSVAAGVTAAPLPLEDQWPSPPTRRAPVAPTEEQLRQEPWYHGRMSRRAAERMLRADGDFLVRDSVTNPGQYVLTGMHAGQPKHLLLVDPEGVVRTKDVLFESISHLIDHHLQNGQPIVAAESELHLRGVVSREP

The next assay addresses T6, SHC3 (Homo sapiens, UniProt Q92529).
T6 construct: made in house; host or cells: HEK293 (transient transfection), unpurified extract
T6 sequence (Q92529 1-594): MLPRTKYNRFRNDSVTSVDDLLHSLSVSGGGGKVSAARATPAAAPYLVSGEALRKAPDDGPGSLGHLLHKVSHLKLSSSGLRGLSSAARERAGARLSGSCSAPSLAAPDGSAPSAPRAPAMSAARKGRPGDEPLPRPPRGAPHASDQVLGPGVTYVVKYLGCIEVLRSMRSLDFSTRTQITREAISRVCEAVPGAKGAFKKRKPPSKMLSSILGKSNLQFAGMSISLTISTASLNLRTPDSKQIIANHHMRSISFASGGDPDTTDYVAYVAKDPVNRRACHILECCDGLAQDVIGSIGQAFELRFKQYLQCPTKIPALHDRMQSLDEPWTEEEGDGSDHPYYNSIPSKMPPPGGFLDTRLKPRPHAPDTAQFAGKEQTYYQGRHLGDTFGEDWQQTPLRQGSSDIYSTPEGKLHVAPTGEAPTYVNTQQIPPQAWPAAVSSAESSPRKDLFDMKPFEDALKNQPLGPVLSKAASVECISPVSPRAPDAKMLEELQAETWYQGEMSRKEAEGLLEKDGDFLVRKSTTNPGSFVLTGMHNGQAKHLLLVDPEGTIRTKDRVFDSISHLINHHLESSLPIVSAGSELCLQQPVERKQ

The target in another assay is T7, SHC4 (Homo sapiens, UniProt Q6S5L8).
T7 construct: made in house; host or cells: HEK293 (transient transfection), unpurified extract
T7 sequence (Q6S5L8 1-630): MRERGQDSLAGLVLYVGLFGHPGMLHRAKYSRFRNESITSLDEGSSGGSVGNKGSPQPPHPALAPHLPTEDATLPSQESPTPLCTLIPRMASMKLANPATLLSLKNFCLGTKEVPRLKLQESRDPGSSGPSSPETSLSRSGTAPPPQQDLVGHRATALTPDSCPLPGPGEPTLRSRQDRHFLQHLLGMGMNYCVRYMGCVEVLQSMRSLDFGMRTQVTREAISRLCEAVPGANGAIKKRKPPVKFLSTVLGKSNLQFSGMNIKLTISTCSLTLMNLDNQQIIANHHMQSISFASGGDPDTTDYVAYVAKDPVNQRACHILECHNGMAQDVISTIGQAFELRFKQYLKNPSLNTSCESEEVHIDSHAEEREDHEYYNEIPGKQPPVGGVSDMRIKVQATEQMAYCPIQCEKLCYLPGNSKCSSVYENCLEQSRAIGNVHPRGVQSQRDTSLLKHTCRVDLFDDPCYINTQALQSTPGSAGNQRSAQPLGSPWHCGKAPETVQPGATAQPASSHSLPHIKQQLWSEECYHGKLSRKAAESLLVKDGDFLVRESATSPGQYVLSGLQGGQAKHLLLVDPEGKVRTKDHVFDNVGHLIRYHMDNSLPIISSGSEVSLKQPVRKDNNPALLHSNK

A further assay deals with T8, PLCG2(SH2dom.C-term.) (Homo sapiens, UniProt P16885).
T8 construct: SH2dom.C-term. denotes SH2 domain closest to C-terminus of protein; made in house; host or cells: HEK293 (transient transfection, unpurified extract)
T8 sequence (P16885 646-735 limits assumed): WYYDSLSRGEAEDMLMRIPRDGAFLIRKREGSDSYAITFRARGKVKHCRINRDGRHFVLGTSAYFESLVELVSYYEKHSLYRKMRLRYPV

The target of a further assay is T9, SHF (Homo sapiens, UniProt Q7M4L6).
T9 construct: made in house; host or cells: HEK293 (transient transfection), unpurified extract
T9 sequence (Q7M4L6 1-423): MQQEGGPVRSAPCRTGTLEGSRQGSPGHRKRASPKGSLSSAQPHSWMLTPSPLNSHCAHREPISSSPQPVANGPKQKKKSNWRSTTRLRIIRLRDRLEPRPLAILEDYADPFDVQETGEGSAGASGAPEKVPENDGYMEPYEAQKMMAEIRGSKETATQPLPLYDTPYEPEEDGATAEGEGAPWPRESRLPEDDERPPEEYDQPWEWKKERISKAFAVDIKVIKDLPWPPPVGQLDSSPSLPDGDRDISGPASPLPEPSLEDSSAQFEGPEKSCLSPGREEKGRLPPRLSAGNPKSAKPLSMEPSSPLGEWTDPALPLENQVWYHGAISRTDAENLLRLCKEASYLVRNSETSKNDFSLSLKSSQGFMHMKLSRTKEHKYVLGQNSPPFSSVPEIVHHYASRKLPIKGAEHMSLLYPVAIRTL

The values below come from paper PMC12951562, “SH2scan: Mapping SH2 Domain-Ligand Binding Selectivity for Inhibitors and Degraders” (Journal of Medicinal Chemistry, 2026).

Non-standard residues stand in square brackets, D forms with d. Residues, ends and D or L forms follow the SMILES beside them. pY = N[C@@H](Cc1ccc(OP(=O)(O)O)cc1)C(=O)O

For the compound `CC[C@H](C)[C@H](NC(=O)[C@H](Cc1c[nH]cn1)NC(=O)[C@H](CCC(=O)O)NC(C)=O)C(=O)N[C@@H](Cc1ccc(OP(=O)(O)O)cc1)C(=O)N[C@@H](CC(=O)O)C(=O)N[C@@H](CCC(=O)O)C(=O)N[C@H](C(=O)N[C@@H](C)C(=O)N[C@@H](C)C(=O)N[C@@H](CC(=O)O)C(N)=O)C(C)C` [Ac-EHIpYDEVAAD-NH2], the dissociation constant Kd – broadly, the constant that tells how readily two partners part at equilibrium – at NCK1 amounted to 0.0153 ± 0.00507 µM; at TEC it was 0.267 ± 0.0663 µM.
In turn, `CC(=O)N[C@@H](CS)C(=O)N[C@@H](CCC(N)=O)C(=O)N[C@H](C(=O)N[C@@H](Cc1ccc(OP(=O)(O)O)cc1)C(=O)N[C@@H](Cc1ccccc1)C(=O)N[C@H](C(=O)N[C@@H](Cc1ccc(O)cc1)C(=O)N[C@@H](CC(=O)O)C(=O)N1CCC[C@H]1C(=O)N[C@@H](Cc1ccc(O)cc1)C(=O)N[C@@H](CO)C(=O)N[C@@H](CCC(=O)O)C(N)=O)[C@@H](C)O)C(C)C` (Ac-CQV[pY]FTYDPYSE-NH2) registered a Kd at SOCS1 of 1.43 ± 0.426 µM.
As to `CC(=O)N[C@@H](CCC(=O)O)C(=O)N[C@@H](CC(N)=O)C(=O)N[C@@H](C)C(=O)N[C@@H](CCC(=O)O)C(=O)N[C@@H](Cc1ccc(OP(=O)(O)O)cc1)C(=O)N[C@@H](CC(C)C)C(=O)N[C@@H](CCCNC(=N)N)C(=O)N[C@H](C(=O)N[C@@H](C)C(N)=O)C(C)C` [Ac-ENAEpYLRVA-NH2] (Ac-ENAE[pY]LRVA-NH2), the Kd at SHC1 is 11 ± 1.26 µM; on SHC2 it was 4.39 ± 0.413 µM; on SHC3, 3.78 ± 0.472 µM; on SHC4, 6.63 ± 0.773 µM.
`CC[C@H](C)[C@H](NC(=O)[C@@H](NC(=O)[C@H](Cc1ccc(OP(=O)(O)O)cc1)NC(=O)[C@H](CO)NC(=O)[C@H](CCCNC(=N)N)NC(=O)[C@@H](NC(=O)[C@H](CO)NC(=O)[C@H](CCC(=O)O)NC(=O)[C@H](CCCCN)NC(=O)[C@H](CCCCN)NC(=O)[C@H](CCCCN)NC(=O)[C@H](CCCCN)NC(C)=O)[C@@H](C)O)C(C)C)C(=O)N[C@@H](CC(C)C)C(=O)N[C@@H](CO)C(=O)N[C@@H](Cc1ccccc1)C(=O)N[C@@H](CCC(=O)O)C(=O)N[C@@H](CC(N)=O)C(=O)N[C@@H](CC(N)=O)C(=O)NCC(N)=O` (Ac-KKKKESTRS[pY]VILSFENNG-NH2): the values for the Kd at PLCG2(SH2dom.C-term.) and on SHF were 0.0109 ± 0.00709 µM and 1.47 ± 0.88 µM, respectively.
